Measured values published in paper PMC2222991 (The Journal of General Physiology, 1999).

How the values were obtained:
[1] = target: T1, TAX-4 (C. elegans tax-4 CNG channel subunit) (Caenorhabditis elegans, UniProt Q03611); assay: inside-out patch macroscopic current, Hill fit; assay type: cell-based
T1 sequence (Q03611 1-733): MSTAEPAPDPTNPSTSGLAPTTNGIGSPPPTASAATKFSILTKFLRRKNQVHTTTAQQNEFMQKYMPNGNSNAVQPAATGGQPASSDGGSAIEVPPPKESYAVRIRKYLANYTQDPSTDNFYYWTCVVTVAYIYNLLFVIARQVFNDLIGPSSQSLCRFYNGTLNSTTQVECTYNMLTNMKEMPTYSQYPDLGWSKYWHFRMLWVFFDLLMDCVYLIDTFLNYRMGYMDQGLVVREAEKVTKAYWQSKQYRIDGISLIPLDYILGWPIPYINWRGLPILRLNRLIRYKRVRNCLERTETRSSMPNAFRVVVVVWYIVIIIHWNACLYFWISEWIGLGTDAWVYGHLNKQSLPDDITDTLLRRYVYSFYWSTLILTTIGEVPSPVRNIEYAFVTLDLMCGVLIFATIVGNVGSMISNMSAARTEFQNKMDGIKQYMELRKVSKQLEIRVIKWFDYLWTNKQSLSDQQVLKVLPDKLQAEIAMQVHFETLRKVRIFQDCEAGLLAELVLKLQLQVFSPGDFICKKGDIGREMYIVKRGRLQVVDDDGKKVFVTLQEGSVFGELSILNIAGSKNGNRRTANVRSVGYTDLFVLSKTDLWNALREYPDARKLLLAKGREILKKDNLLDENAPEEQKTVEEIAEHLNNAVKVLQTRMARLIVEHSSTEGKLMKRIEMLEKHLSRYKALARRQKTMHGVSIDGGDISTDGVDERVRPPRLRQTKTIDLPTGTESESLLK

[2] = system: RTL2; assay: inside-out patch macroscopic current, Hill fit; assay type: cell-based, Bos taurus / Caenorhabditis elegans; settings: read-out: K 1/2; agonist; divalent-free solution pH 7.2; -80 or -100 mV; n = 4
[3] = system: RTL1; assay: inside-out patch macroscopic current, Hill fit; assay type: cell-based, Bos taurus / Caenorhabditis elegans; settings: read-out: K 1/2; agonist; divalent-free solution pH 7.2; -80 or -100 mV; n = 4
[4] = system: TRC; assay: inside-out patch macroscopic current, Hill fit; assay type: cell-based, Caenorhabditis elegans / Bos taurus; settings: read-out: K 1/2; agonist; divalent-free solution pH 7.2; -80 or -100 mV; n = 4
[5] = system: RTB; assay: inside-out patch macroscopic current, Hill fit; assay type: cell-based, Bos taurus / Caenorhabditis elegans; settings: read-out: K 1/2; agonist; divalent-free solution pH 7.2; -80 or -100 mV; n = 5
[6] = system: RTC; assay: inside-out patch macroscopic current, Hill fit; assay type: cell-based, Bos taurus / Caenorhabditis elegans; settings: read-out: K 1/2; agonist; divalent-free solution pH 7.2; -80 or -100 mV; n = 8
[7] = system: ROPTL2; assay: inside-out patch macroscopic current, Hill fit; assay type: cell-based, Bos taurus / Caenorhabditis elegans / Ictalurus punctatus; settings: read-out: K 1/2; agonist; divalent-free solution pH 7.2; -80 or -100 mV; n = 4
[8] = system: RTL; assay: inside-out patch macroscopic and single-channel currents, Hill fit; assay type: cell-based, Bos taurus / Caenorhabditis elegans; settings: read-out: K 1/2; agonist; divalent-free solution pH 7.2; -80 or -100 mV; n = 8

## Nc1nc2c(ncn2[C@@H]2O[C@@H]3COP(=O)(O)O[C@H]3[C@H]2O)c(=O)[nH]1 [cGMP]
[1]
  EC50: 0.4 µM
[2]
  EC50: 4 µM
[3]
  EC50: 24 µM
[4]
  EC50: 4.7 µM
[5]
  EC50: 63 µM
[6]
  EC50: 1.3 µM
[7]
  EC50: 3 µM
[8]
  EC50: 1 µM
